Test results published in US6670366B1, “Pyrazolopyrimidinone cGMP PDE5 inhibitors for the treatment of sexual dysfunction” (Pfizer Inc, priority 1998, dated 2003).

Target: cGMP PDE5 (UniProt O76074)
Test: In vitro PDE inhibitory activity against cGMP PDE5
Assay type: biochemical, human or rabbit
Details: concentration of compound required for 50% inhibition of enzyme activity, read-out: IC50 as inhibitors of cGMP PDE5
Protocol: In vitro PDE inhibitory activities against cyclic guanosine 3′,5′-monophosphate (cGMP) and cyclic adenosine 3′,5′-monophosphate (cAMP) phosphodiesterases were determined by measurement of their IC50 values (the concentration of compound required for 50% inhibition of enzyme activity).
The required PDE enzymes were isolated from a variety of sources, including human corpus cavernosum, human and rabbit platelets, human cardiac ventricle, human skeletal muscle and bovine retina, essentially by the method of W. J. Thompson and M. M. Appleman (Biochem., 1971, 10, 311). In particular, the cGMP-specific PDE (PDE5) and the cGMP-inhibited cAMP PDE (PDE3) were obtained from human corpus cavernosum tissue, human platelets or rabbit platelets; the cGMP-stimulated PDE (PDE2) was obtained from human corpus cavernosum; the calcium/calmodulin (Ca/CAM)-dependent PDE (PDE1) from human cardiac ventricle; the cAMP-specific PDE (PDE4) from human skeletal muscle; and the photoreceptor PDE (PDE6) from bovine retina.
Assays were performed using modification of the “batch” method of W. J. Thompson et al. (Biochem., 1979, 18, 5228).

Which IC50 does the source give for CCOc1ccc(S(=O)(=O)N2CCC(CC)CC2)cc1-c1nc2c(CC)n(Cc3ccccn3)nc2c(=O)[nH]1 [Example 4] here?
The IC50 was 26.6 nM.

How did the IC50 turn out when CCCOc1ccc(S(=O)(=O)N2CC(O)C2)cc1-c1nc2c(CCC)n(Cc3ccccn3)nc2c(=O)[nH]1 [Example 8] was run?
The IC50 was 16.4 nM.

For CCCOc1ccc(S(=O)(=O)NC2CCN(C(=O)OCC)CC2)cc1-c1nc2c(CCC)n(Cc3ccccn3)nc2c(=O)[nH]1 [Example 10], which IC50 is on record?
The IC50 was 14 nM.

How did the IC50 turn out when CCCc1c2nc(-c3cc(S(=O)(=O)N(C)C)cnc3OCC)[nH]c(=O)c2nn1Cc1ccccn1 [Example 19, 5-[5-(N,N-Dimethylaminosulfonyl)-2-ethoxypyridin-3-yl]-3-n-propyl-2-(pyridin-2-yl)methyl-2,6dihydro-7H-pyrazolo[4,3-d]pyrimidin-7-one] was run?
Its IC50 is 9.7 nM.

For CCCOc1ncc(S(=O)(=O)NCCN(C)C)cc1-c1nc2c(CCC)n(Cc3ccccn3)nc2c(=O)[nH]1 [Example 20, 5-(5-[(3-N,N-Dimethylamino)-1-ethylaminosulfonyl]-2-n-propoxypyridin-3-yl)-3-n-propyl-2-(pyridin-2-yl)methyl-2,6-dihydro-7H-pyrazolo[4,3-d]pyrimidin-7-one], which IC50 is on record?
The IC50 was 8.5 nM.

CCc1c2nc(-c3cc(S(=O)(=O)N4CCC(CC)CC4)cnc3OCCOC)[nH]c(=O)c2nn1Cc1ccccn1 [Example 22] was tested. Which IC50 did it give?
The IC50 was 10.3 nM.
